From patent US9884043B2, “RORgammaT inhibitors” (Merck Sharp & Dohme Corp., priority 2011, dated 2018) come the findings set out here.

What is called IC50 is the concentration at which inhibition is half-maximal. For orientation: EC50 means the midpoint of the concentration-response curve.

Molecules are shown by their SMILES.

One assay deals with T1, HIS-tagged RORγ-LBD (Homo sapiens, UniProt P51449).
T1 construct: HIS-tagged RORγ-LBD was recombinantly expressed in SF9 cells using a baculovirus expression system; made in house; host or cells: SF9 cells, baculovirus; crude lysate used
T1 sequence (P51449 269-508 limits assumed): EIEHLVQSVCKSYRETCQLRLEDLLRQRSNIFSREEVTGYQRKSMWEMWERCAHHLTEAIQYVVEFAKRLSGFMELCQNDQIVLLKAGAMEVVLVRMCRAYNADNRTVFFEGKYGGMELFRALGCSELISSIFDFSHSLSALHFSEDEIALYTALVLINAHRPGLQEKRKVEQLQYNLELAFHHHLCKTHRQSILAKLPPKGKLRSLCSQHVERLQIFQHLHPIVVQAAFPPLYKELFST
Briefly: TR-FRET assay (Protocol C), purified RORγ-LBD / biotinylated SRC1 LXXLL peptide. The format is biochemical. The following applies: purified RORγ-LBD 3 nM, SRC1 peptide 100 nM, overnight at 4° C. The text has this: Activation of RORgammaT activity can be measured using e.g. biochemical TR-FRET assay. In such an assay, interaction of cofactor-derived peptides with human RORgammaT-Ligand Binding Domain (LBD) can be measured. The TR-FRET technique is a sensitive biochemical proximity assay that will give information concerning the interaction of a ligand with the LBD, in the presence of cofactor derived peptides (Zhou et al., Methods 25:54-61, 2001).
To identify novel antagonists of RORgammaT, an assay was developed which employs the interaction of RORgammaT with its co-activator peptide SRC1_2. This peptide mimics the recruitment of co-activators to RORgammaT through its interaction with the LXXLL (SEQ ID NO:2) (eg NR box) motifs (Xie et al., J. Immunol. 175: 3800-09, 2005; Kurebayashi et al., Biochem. Biophys. Res. Commun. 315: 919-27, 2004; Jin et al., Mol. Endocrinology 24:923-29, 2010). The assay was run following three slightly different protocols, i.e. Protocol A, Protocol B, and Protocol C, which are described below.
TR-Fret Assay (Protocol C)
HIS-tagged RORγ-LBD protein was expressed in SF9 cells using a baculovirus expression system. The RORγ-LBD protein was purified by glutathione sepharose chromatography. Separately, SF9 cells not expressing any recombinant protein were lysed and the lysate was added to the purified RORγ-LBD at 0.25 μl lysate (from 10,000 SF9 cells)/nM purified protein. The mixture was then diluted in assay buffer (50 mM Tris pH 7.0, 50 mM KCl, 1 mM EDTA, 0.1 mM DTT) to obtain RORγ-LBD final concentration of 3 nM in 384-well assay plate.
Compounds to be tested were injected to the assay plate using Acoustic Droplet Ejection technology by Echo 550 liquid handler (Labcyte, Calif.). A stock of biotinylated-LXXLL (SEQ ID NO:2) peptide from coactivator SRC1 (Biotin-[…]) (SEQ ID NO: 1) was prepared in assay buffer and added to each well (100 nM final concentration). A solution of Europium tagged anti-HIS antibody (1.25 nM final concentration) and APC conjugated streptavidin (8 nM final concentration) were also added to each well.
The final assay mixture was incubated for overnight at 4° C., and the fluorescence signal was measured on an Envision plate reader: (Excitation filter=340 nm; APC emission=665 nm; Europium emission=615 nm; dichroic mirror=D400/D630; delay time=100 μs, integration time=200 μs). IC50 values for test compounds were calculated from the quotient of the fluorescence signal at 665 nm divided by the fluorescence signal at 615 nm.
On the technique in general: Time-resolved FRET reads energy transfer from a long-lived donor to a nearby acceptor.
Take `COCCCNC(=O)c1ccc2c(-c3ccc(C(=O)O)cc3F)nn(C(=O)c3c(Cl)cccc3C(F)(F)F)c2c1` [Example 25N, 4-(1-(2-chloro-6-(trifluoromethyl)benzoyl)-6-(3-methoxypropyl-carbamoyl)-1H-indazol-3-yl)-3-fluorobenzoic acid]: the IC50 was under 50 nM.
Turning to `O=C(O)c1ccc(-c2nn(C(=O)c3c(Cl)cccc3C(F)(F)F)c3cc(C(=O)N4CC(F)(F)C4)ccc23)cc1` [Example 25U, 4-(1-(2-chloro-6-(trifluoromethyl)benzoyl)-6-(3,3-difluoroazetidine-1-carbonyl)-1H-indazol-3-yl)benzoic acid], the 50% inhibitory concentration (IC50) was under 50 nM.
In the case of `O=C(O)c1ccc(-c2nn(C(=O)c3c(Cl)cccc3C(F)(F)F)c3cc(C(=O)N4CCC4)ccc23)cc1` [Example 25W, 4-(6-(azetidine-1-carbonyl)-1-(2-chloro-6-(trifluoromethyl)benzoyl)-1H-indazol-3-yl)benzoic acid], the IC50 is under 50 nM.
Same read-out and setting: with `O=C(O)c1cc(-c2nn(C(=O)c3c(Cl)cccc3C(F)(F)F)c3cccnc23)ccc1O` [Example 24AL, 5-(1-(2-chloro-6-(trifluoromethyl)-benzoyl)-1H-pyrazolo[4,3-b]pyridin-3-yl)-2-hydroxybenzoic acid] the figure was over 10000 nM.
The same measure, in the same setting: with `COCc1ccc2c(-c3ccc(C(=O)O)cc3)nn(C(=O)c3c(Cl)cccc3C(F)(F)F)c2c1` [Example 24BG, 4-(1-(2-chloro-6-(trifluoromethyl)-benzoyl)-6-(methoxymethyl)-1H-indazol-3-yl)benzoic acid] the figure was 50 to 500 nM; with `COc1cccc(F)c1C(=O)n1nc(-c2ccc(C(=O)O)cc2F)c2cccc(F)c21` [Example 24AW, 3-fluoro-4-(7-fluoro-1-(2-fluoro-6-methoxybenzoyl)-1H-indazol-3-yl)benzoic acid], 50 to 500 nM.
On the same count and under the same terms, under `COc1cccc(F)c1C(=O)n1nc(-c2ccc(C(=O)O)cc2F)c2ccccc21` [Example 24AU, sodium 3-fluoro-4-(1-(2-fluoro-6-methoxybenzoyl)-1H-indazol-3-yl)benzoate] stands under 50 nM.
Turning to `O=C(O)c1ccc(-c2nn(C(=O)c3c(Cl)cccc3C(F)(F)F)c3cc(C(=O)N4CCCC4)ccc23)cc1` [Example 25V, 4-(1-(2-chloro-6-(trifluoromethyl)benzoyl)-6-(pyrrolidine-1-carbonyl)-1H-indazol-3-yl)benzoic acid], the IC50 was under 50 nM.
With `O=C(O)c1ccc(-c2nn(C(=O)c3c(Cl)cccc3C(F)(F)F)c3ccccc23)c(Cl)c1` [Example 24AS, 3-chloro-4-(1-(2-chloro-6-(trifluoromethyl)-benzoyl)-1H-indazol-3-yl)benzoic acid], the concentration for half-maximal inhibition (IC50) was under 50 nM.
`O=C(O)c1c(F)cc(-c2nn(C(=O)c3c(Cl)cccc3C(F)(F)F)c3cccc(F)c23)c(F)c1O` [Example 26G, 4-(1-(2-chloro-6-(trifluoromethyl)benzoyl)-4-fluoro-1H-indazol-3-yl)-3,6-difluoro-2-hydroxybenzoic acid] displayed a half-maximal inhibitory concentration (IC50) of under 50 nM.
`O=C(O)c1cc(F)c(-c2nn(C(=O)c3c(Cl)cccc3C(F)(F)F)c3cccc(F)c23)cc1O` [Example 26F, 4-(1-(2-chloro-6-(trifluoromethyl)benzoyl)-4-fluoro-1H-indazol-3-yl)-5-fluoro-2-hydroxybenzoic acid] displayed an IC50 of under 50 nM.
On the same count and under the same terms, with `COc1cccc(F)c1C(=O)n1nc(-c2ccc(C(=O)O)cc2)c2cccc(F)c21` [Example 24AV, 4-(7-fluoro-1-(2-fluoro-6-methoxybenzoyl)-1H-indazol-3-yl)benzoic acid] the figure was 50 to 500 nM; with `COCCN(C)C(=O)c1ccc2c(-c3ccc(C(=O)O)cc3F)nn(C(=O)c3c(Cl)cccc3C(F)(F)F)c2c1` [Example 25S, 4-(1-(2-chloro-6-(trifluoromethyl)benzoyl)-6-((2-methoxyethyl) (methyl)carbamoyl)-1H-indazol-3-yl)-3-fluorobenzoic acid], under 50 nM; with `O=C(O)c1ccc(-c2nn(C(=O)c3c(Cl)cccc3C(F)(F)F)c3cc(C(=O)N4CC(F)C4)ccc23)cc1` [Example 25T, 4-(1-(2-chloro-6-(trifluoromethyl)benzoyl)-6-(3-fluoroazetidine-1-carbonyl)-1H-indazol-3-yl)benzoic acid], under 50 nM.

For another assay, the target named is T2, 6His(GST)RORgamma-LBD (Homo sapiens, UniProt P51449).
T2 construct: the applied RORgamma-LBD contains a 6-His and GST tag; GST (N); made in house; host or cells: baculovirus-infected Sf-21 insect cells
T2 sequence (P51449 269-508 limits assumed): T1 sequence (P51449 269-508 limits assumed)
Briefly: TR-FRET assay (Protocol A), RORgamma-LBD / SRC1_2 co-activator peptide interaction. The conditions noted are these: SRC1_2 peptide 0.1 μM, RORgamma-LBD 10 nM, overnight incubation at 4° C. The format is biochemical. The text has this:
Activation of RORgammaT activity can be measured using e.g. biochemical TR-FRET assay. In such an assay, interaction of cofactor-derived peptides with human RORgammaT-Ligand Binding Domain (LBD) can be measured.
To identify novel antagonists of RORgammaT, an assay was developed which employs the interaction of RORgammaT with its co-activator peptide SRC1_2. […] The assay was run following three slightly different protocols, i.e. Protocol A, Protocol B, and Protocol C, which are described below.
TR-FRET Assay (Protocol A)
The 6His(GST)RORgamma-LBD was expressed and purified from baculovirus infected Sf-21 insect cells (Bac-to-BAC, Invitrogen) and purified using glutathione sepharose chromatography (GE healthcare). Biotin and His function as anchoring points for streptavidin-allophycocyanin (Strep-APC, Perkin Elmer, C130-100) and anti-His-Europium Cryptate (Perkin Elmer, AD0111), respectively. Since energy transfer between the streptavidin and His-coupled labels APC and europium cryptate can only take place when these labels are in close proximity, measurement of energy transfer in a mixture of biotinylated peptide, His-GR-LBD, streptavidin-APC and anti-His-Europium Cryptate will be indicative for RORy-LBD/peptide binding. […] Changes in peptide binding caused by dose-curves of compounds added to the reaction mixture (DMSO concentration 0.1%), can likewise be monitored.
Compound `O=C(O)c1ccc(-c2nn(C(=O)C3CCCCC3)c3ccccc23)cc1` [Example 11D, 4-(1-(cyclohexanecarbonyl)-1H-indazol-3-yl)benzoic acid] showed an EC50 of 525 nM.
On the same count and under the same terms, with `O=S(=O)(c1ccccc1C(F)(F)F)n1nc(-c2ccc(C(O)(C(F)(F)F)C(F)(F)F)cc2)c2ccccc21` [Example 9, 1,1,1,3,3,3-hexafluoro-2-(4-(1-(2-(trifluoromethyl)phenylsulfonyl)-1H-indazol-3-yl)phenyl)propan-2-ol] the figure was 9330 nM.
Same read-out and setting: under `O=S(=O)(c1sc(Cl)cc1Br)n1nc(-c2ccc(-c3nnn[nH]3)cc2)c2ccccc21` [Example 21C, 3-(4-(1H-tetrazol-5-yl)phenyl)-1-(3-bromo-5-chlorothiophen-2-ylsulfonyl)-1H-indazole] stands 617 nM; under `O=C(O)c1ccc(-c2nn(C(=O)c3c(Cl)cccc3Cl)c3ccc(F)cc23)cc1` [Example 2, 4-(1-(2,6-dichlorobenzoyl)-5-fluoro-1H-indazol-3-yl)benzoic acid], 245 nM; under `O=C(O)c1ccc(-c2nn(C(=O)c3c(Cl)cccc3Cl)c3cc(F)ccc23)cc1` [Example 5, 4-(1-(2,6-dichlorobenzoyl)-6-fluoro-1H-indazol-3-yl)benzoic acid], 174 nM.
`O=C(O)c1ccc(-c2nn(C(=O)c3ccccc3C(F)(F)F)c3cccnc23)cc1` [Example 6B, 4-(1-(2-(trifluoromethyl)benzoyl)-1H-pyrazolo[4,3-b]pyridin-3-yl)benzoic acid]: the EC50 was 224 nM.
Consider `O=C(O)c1ccc(-c2nn(C(=O)c3c(Cl)cccc3Cl)c3cccnc23)cc1` [Example 6A, 4-(1-(2,6-dichlorobenzoyl)-1H-pyrazolo[4,3-b]pyridin-3-yl)benzoic acid], for which the concentration for a half-maximal effect (EC50) was 13.5 nM.
As for `O=C(O)c1ccc(-c2nn(C(=O)c3cccc(Cl)c3Cl)c3ccccc23)cc1` [Example 11K, 4-(1-(2,3-dichlorobenzoyl)-1H-indazol-3-yl)benzoic acid], the response was half-maximal at 21.4 nM (EC50).
